Results published in paper PMC12043106, “Insight into antistaphylococcal effect of chlorinated 1-hydroxynaphthalene-2-carboxanilides” (ADMET & DMPK, 2025).
In brackets after ≈: the same amount, converted by molar mass. Several values for one entry are separate records, joined by “and”; a condition that tells them apart may be missing. Equal entries are not always repeated.

Experiments:
MRSA 63718 = test: Antistaphylococcal screening, microtitration broth MIC; assay type: cell-based, methicillin-resistant S. aureus; conditions: Staphylococcus aureus; MRSA 63718, 24 h, 37 °C
Experimental: (§1) In vitro antistaphylococcal activity of the synthesized compounds was evaluated against three clinical isolates of methicillin-resistant S. aureus: clinical isolate of animal origin, MRSA 63718 (Department of Infectious Diseases and Microbiology, Faculty of Veterinary Medicine, University of Veterinary Sciences Brno, Czech Republic), carrying the mecA gene; and MRSA SA 630 and MRSA SA 3202 [54] (National Institute of Public Health, Prague, Czech Republic), both of human origin. […] All isolates were tested for the presence of the mecA gene encoding methicillin resistance. […] Vancomycin-susceptible methicillin-susceptible S. aureus (VS-MSSA) ATCC 29213, obtained from the American Type Culture Collection, was used as the reference and quality control strain. The minimum inhibitory concentrations (MICs) were evaluated by the microtitration broth method according to the CLSI [58, 59] with some modifications. The compounds were dissolved in DMSO (Sigma, St. Louis, MO, USA) to get a concentration […] and diluted in a microtitration plate in a medium Cation Adjusted Mueller-Hinton (CaMH, Oxoid, Basingstoke, UK) to reach the final concentration of 256-0.0625 μg/mL. The plate was inoculated by the tested microorganisms. The final concentration of bacterial cells was 10^5 for bacteria. […] A drug-free control and a sterility control were included. The plates were incubated for 24 h at 37 °C. […] The experiments were repeated three times.

MRSA SA 3202 = test: as above; assay type: cell-based, methicillin-resistant S. aureus; conditions: Staphylococcus aureus; MRSA SA 3202, 24 h, 37 °C
Experimental: as §1

MRSA SA 630 = test: as above; assay type: cell-based, methicillin-resistant S. aureus; conditions: Staphylococcus aureus; MRSA SA 630, 24 h, 37 °C
Experimental: as §1

[1] = Lipophilicity determination by HPLC (capacity factor k, distribution coefficients DpH); assay type: physicochemical; conditions: for log k: MeOH 72 % / H2O 28 %, C18; for log D6.5: MeOH 72 % / acetate-buffered saline pH 6.5 28 %; for log D7.4: MeOH 72 % / acetate-buffered saline pH 7.4 28 %
Description: An HPLC system Agilent 1200 equipped with a DAD detector (Agilent, Santa Clara, CA, USA) was used. A chromatographic column Symmetry® C18 5 μm, 4.6×250 mm, part No. WAT054275 (Waters Corp., Milford, MA, USA) was used. The HPLC separation process was monitored and evaluated with EZChrom Elite software ver. 3.3.2 [53] (Agilent). Isocratic elution by a mixture of MeOH p.a. (72 %) and H2O-HPLC Mili-Q grade (28 %) as a mobile phase was used for the determination of capacity factor k. Isocratic elution by a mixture of MeOH p.a. (72 %) and acetate-buffered saline (pH 7.4 and pH 6.5) (28 %) as a mobile phase was used for the determination of distribution coefficients expressed as D7.4 and D6.5. The total flow of the column was 1.0 mL/min, the injection volume was 20 μL, the column temperature was 40 °C, and the sample temperature was 10 °C. The detection wavelength of 210 nm was chosen. A KI methanolic solution was used for the determination of the dead times (tD). Retention times (tR) were measured in minutes. The capacity factors k were calculated according to the formula k = (tR−tD)/tD, where tR is the retention time of the solute, and tD is the dead time obtained using an unretained analyte. The distribution coefficients DpH were calculated according to the formula DpH = (tR−tD)/tD. Each experiment was repeated three times.

S. aureus ATCC 29213 [2] = test: Antistaphylococcal screening, microtitration broth MIC; assay type: cell-based, Staphylococcus aureus; conditions: for MIC: Staphylococcus aureus, ATCC29213, S. aureus ATCC 29213, 24 h, 37 °C; for Antistaphylococcal activity in words: susceptible strain and resistant isolates
Experimental: as §1

[3] = system: Human monocytic leukemia THP-1 cells; parameters: method as in PMID 24075143; conditions: tested up to 20 μM, ref [29], read-out: LC50 THP-1; cited from earlier work
in vitro = test: in vitro
Experimental: Cytotoxicity of the compounds was determined using an LDH assay kit (Roche, Mannheim, Germany) as described previously. Human monocytic leukemia THP-1 cells (European Collection of Cell Cultures, Salisbury, UK) were exposed for 24 h at 37 °C to various compound concentrations ranging from 0.37 to 30 μM in RPMI 1640 medium. For LDH assays, cells were seeded into 96-well plates (5×10^4 cells/well in 100 μL of culture medium) in triplicate in serum-free RPMI 1640 medium and measurements were taken 24 h after the treatment with the compounds. The maximum concentration of DMSO (Sigma) in the assays never exceeded 0.1 %. […] The median lethal dose values, LC50, were deduced through the production of a dose-response curve. All data from three independent experiments were evaluated using GraphPad Prism 5.00 software.

S. aureus ATCC 29213 [4] = test: MTT assay (bacterial viability / respiratory activity); assay type: cell-based, Staphylococcus aureus; conditions: S. aureus ATCC 29213, MTT; for S. aureus viability inhibition: at the lowest multiple of MIC with at least 70 % inhibition
Experimental: Compounds were prepared as previously stated and diluted in CaMH broth for S. aureus to achieve the desired final concentrations. S. aureus bacterial suspension in sterile distilled water at 0.5 McFarland was diluted 1:3. Inocula were added to each well by multi-inoculator. Diluted […] in broth free from inhibiting compounds were used as the growth control. All compounds were prepared in duplicate. Plates were incubated at 37 °C for 24 h for S. aureus. After the incubation period, 10 % well volume of MTT (3-(4,5-dimethylthiazol-2-yl)-2,5-diphenyltetrazolium bromide) reagent (Sigma) was mixed into each well and incubated at 37 °C for 1 h for S. aureus. Then 100 μL of 17 % sodium dodecyl sulphate in 40 % dimethylformamide was added to each well. The plates were read at 570 nm. The absorbance readings from the cells grown in the presence of the tested compounds were compared with uninhibited cell growth to determine the relative percent inhibition. The percent inhibition was determined through the MTT assay. The percent viability is calculated through the comparison of a measured value and that of the uninhibited control: Viability = (OD570E/OD570P)×100, where OD570E is the reading from the compound-exposed cells, while OD570P is the reading from the uninhibited cells (positive control). Cytotoxic potential is determined by a percent viability of <70 % [60, 61].
The MTT assay can be used to assess cell growth by measuring respiration.

SMILES	MIC (MRSA 63718) [µM]	MIC (MRSA SA 3202) [µM]	MIC (MRSA SA 630) [µM]	log k [1]	log D6.5 [1]	log D7.4 [1]	MIC (S. aureus ATCC 29213 [2]) [µM]	CC50 [3] [µM]	CC50 at 24 h (in vitro) [µM]	Concentration: lowest multiple of MIC with at least 70 % inhibition of viability (S. aureus ATCC 29213 [4]) [× MIC]	S. aureus viability inhibition (S. aureus ATCC 29213 [4])	Antistaphylococcal activity in words (S. aureus ATCC 29213 [2])
O=C(Nc1cc(Cl)ccc1Cl)c1ccc2ccccc2c1O [Compound 7]	770 (≈ 256 µg/mL)	770 (≈ 256 µg/mL)	770 (≈ 256 µg/mL)	0.6717	0.3949	0.3938	770 (≈ 256 µg/mL)					
O=C(Nc1cccc(Cl)c1)c1ccc2ccccc2c1O [Compound 3]	> 859	107 (≈ 31.9 µg/mL)	429 (≈ 128 µg/mL)	0.8556	0.7362	0.7227	> 859	> 20				
O=C(Nc1c(Cl)cc(Cl)cc1Cl)c1ccc2ccccc2c1O [Compound 12]	698 (≈ 256 µg/mL)	698 (≈ 256 µg/mL)	698 (≈ 256 µg/mL)	0.8398	0.7254	0.6825	698 (≈ 256 µg/mL)					
CC[C@@]1(O)C(=O)OCc2c1cc1n(c2=O)Cc2cc3ccccc3nc2-1 [CMP, camptothecin, reference compound]									0.16 ± 0.07			
O=C(Nc1cc(Cl)c(Cl)cc1Cl)c1ccc2ccccc2c1O [Compound 11]	698 (≈ 256 µg/mL)	698 (≈ 256 µg/mL)	698 (≈ 256 µg/mL)	0.6894	0.5314	0.4864	698 (≈ 256 µg/mL)					
O=C(Nc1ccccc1)c1ccc2ccccc2c1O [Compound 1]	> 972	121 (≈ 31.9 µg/mL)	243 (≈ 64 µg/mL)	0.6084	0.5139	0.5487	> 972	> 20				
CC1(C)S[C@@H]2[C@H](NC(=O)[C@H](N)c3ccccc3)C(=O)N2[C@H]1C(=O)O [APC, ampicillin, reference compound]	45.8 (≈ 16 µg/mL)	45.8 (≈ 16 µg/mL)	45.8 (≈ 16 µg/mL)				5.72 (≈ 2 µg/mL)		0.8 ± 0.1	8	90.0%	
O=C(Nc1cccc(Cl)c1Cl)c1ccc2ccccc2c1O [Compound 5]	770 (≈ 256 µg/mL)	770 (≈ 256 µg/mL)	770 (≈ 256 µg/mL)	0.6838	0.4371	0.3870	770 (≈ 256 µg/mL)					
O=C(Nc1ccc(Cl)c(Cl)c1)c1ccc2ccccc2c1O [Compound 9]	770 (≈ 256 µg/mL)	385 (≈ 128 µg/mL)	96.3 (≈ 32 µg/mL)	0.9304	0.9048	0.8909	770 (≈ 256 µg/mL)					
O=C(Nc1ccc(Cl)cc1Cl)c1ccc2ccccc2c1O [Compound 6]	770 (≈ 256 µg/mL)	770 (≈ 256 µg/mL)	770 (≈ 256 µg/mL)	0.7387	0.5168	0.4680	770 (≈ 256 µg/mL)					
O=C(Nc1c(Cl)cccc1Cl)c1ccc2ccccc2c1O [Compound 8, N-(2,6-dichlorophenyl)-1-hydroxynaphthalene-2-carboxamide]	48.2 (≈ 16 µg/mL)	48.2 (≈ 16 µg/mL)	48.2 (≈ 16 µg/mL)	0.5729	0.4516	0.4594	48.2 (≈ 16 µg/mL)		> 30			Partial activity
O=C(Nc1cc(Cl)cc(Cl)c1)c1ccc2ccccc2c1O [Compound 10, N-(3,5-dichlorophenyl)-1-hydroxynaphthalene-2-carboxamide]	0.37 (≈ 0.123 µg/mL)	0.37 (≈ 0.123 µg/mL)	0.37 (≈ 0.123 µg/mL)	0.9704	0.9531	0.9306	0.37 (≈ 0.123 µg/mL)		> 30	16	96% and 96.5%	significant antistaphylococcal activity
O=C(Nc1cc(Cl)c(Cl)c(Cl)c1)c1ccc2ccccc2c1O [Compound 13, N-(3,4,5-trichlorophenyl)-1-hydroxynaphthalene-2--carboxamide]	698 (≈ 256 µg/mL)	698 (≈ 256 µg/mL)	698 (≈ 256 µg/mL)	1.2387	1.0960	1.0561	698 (≈ 256 µg/mL)					
O=C(Nc1ccc(Cl)cc1)c1ccc2ccccc2c1O [Compound 4]	> 859	107 (≈ 31.9 µg/mL)	429 (≈ 128 µg/mL)	0.8880	0.7640	0.7501	> 859	> 20				
O=C(Nc1ccccc1Cl)c1ccc2ccccc2c1O [Compound 2]	> 859	> 859	> 859	0.6900	0.5828	0.5836	> 859					
